Test results published in patent US10385065B2, “Antibacterial compounds” (priority 2014, dated 2019).
In brackets after ≈: the same amount, converted by molar mass. Like-named read-outs stand apart in the source and are kept apart here.

How the values were obtained:
Format in all cases: cell-based
[1] = system: human hepatic cell line (HepG2 ATCC HB-8065); experiment: Human cell viability assay (CellTiter-Glo), HepG2; conditions: HepG2, 24 h incubation, tested over 1-128 μg/mL, read-out: IC50 values against HepG2
Method: Compounds are assessed for potential non-specific cytotoxic effects against a human hepatic cell line (HepG2 ATCC HB-8065). HepG2 cells are seeded at 20,000 cells/well in 96-well microtitre plates in minimal essential medium (MEM) supplemented with a final concentration of 10% FBS and 1 mM sodium pyruvate. After 24 h compound dilutions are prepared in Dulbecco's minimum essential media (DMEM) supplemented with final concentrations of 0.001% FBS, 0.3% bovine albumin and 0.02% HEPES and added to cells. Compounds are tested in two-fold serial dilutions over a final concentration range of 1-128 μg/mL in a final DMSO concentration of 1% vol/vol. Chlorpromazine is used as a positive control. Cells are incubated with compound at 37° C. and 5% CO2 for a further 24 h, after which time the CellTiter-Glo reagent (Promega) is added. Luminescence is measured on a BMG Omega plate reader. Data are analysed using GraphPad Prism software to determine the concentration of compound that inhibits cell viability by fifty percent (IC50).

[2] = system: Escherichia coli ATCC 25922; experiment: MIC, broth microdilution, E. coli ATCC 25922; conditions: ATCC25922, Table 1, wild type strain
[3] = system: Haemophilus influenzae ATCC 49247; experiment: MIC, H. influenzae ATCC 49247; conditions: ATCC49247, Table 4
[4] = system: Enterococcus faecium ATCC 19434; experiment: MIC, E. faecium ATCC 19434; conditions: ATCC19434, Table 2
[5] = system: Staphylococcus aureus ATCC 29213; experiment: MIC, broth microdilution, S. aureus ATCC 29213
[6] = ATCC29213, Table 1, wild type strain, read-out: MIC S. aureus ATCC 29213
[7] = ATCC 29213 / MSSA, Table 2, read-out: MIC S. aureus (MSSA) ATCC 29213 CLSI control strain

Compound | IC50 [1] | MIC [2] | MIC [3] | MIC [4] | MIC [5, 6] | MIC [5, 7]
Cc1c(-c2ccc(N)cc2F)ccc2c3ocnc3c(=O)n(C3CC3)c12 [Compound 5, 7-(4-amino-2-fluoro-phenyl)-5-cyclopropyl-6-methyl-oxazolo[4,5-c]quinolin-4-one] | 10 to 100 µg/mL (≈ 28.6 to 286 µM) | 1 to 10 µg/mL (≈ 2.86 to 28.6 µM) | < 1 µg/mL | > 100 µg/mL | < 1 µg/mL | < 1 µg/mL
Cc1nc2c(=O)n(C3CC3)c3c(C)c(-c4ccc(C(=O)O)cc4)ccc3c2o1 [Compound 8, 4-(5-cyclopropyl-2,6-dimethyl-4-oxo-oxazolo[4,5-c]quinolin-7-yl)benzoic acid] | > 100 µg/mL | > 100 µg/mL | 1 to 10 µg/mL (≈ 2.67 to 26.7 µM) | > 100 µg/mL | 10 to 100 µg/mL (≈ 26.7 to 267 µM) | > 100 µg/mL
Cc1nc2c(=O)n(C3CC3)c3c(C)c(-c4ccc(CN)cc4)ccc3c2o1 [Compound 9, 7-[4-{aminomethyl)phenyl]-5-cyclopropyl-2,6-dimethyl-oxazolo[4,5-c]quinolin-4-one] | 10 to 100 µg/mL (≈ 27.8 to 278 µM) | 1 to 10 µg/mL (≈ 2.78 to 27.8 µM) | 1 to 10 µg/mL (≈ 2.78 to 27.8 µM) | > 100 µg/mL | < 1 µg/mL | < 1 µg/mL
Cc1nc2c(=O)n(C3CC3)c3c(C)c(-c4ccc5[nH]ncc5c4)ccc3c2o1 [Compound 10, 5-cyclopropyl-7-(1H-indazol-5-yl)-2,6-dimethyl-oxazolo{4,5-c]quinolin-4-one] | 10 to 100 µg/mL (≈ 27 to 270 µM) | > 100 µg/mL | 10 to 100 µg/mL (≈ 27 to 270 µM) | > 100 µg/mL | < 1 µg/mL | < 1 µg/mL
Cc1nc2c(=O)n(C3CC3)c3c(C)c(-c4cnn(C5CN(C(=O)OC(C)(C)C)C5)c4)ccc3c2o1 [Compound 11, tert-butyl 3-[4-(5-cyclopropyl-2,6-dimethyl-4-oxo-oxazolo[4,5-c]quinolin-7-yl)pyrazol-1-yl]azetidine-1-carboxylate] | > 100 µg/mL | > 100 µg/mL | 10 to 100 µg/mL (≈ 21 to 210 µM) | > 100 µg/mL | 1 to 10 µg/mL (≈ 2.1 to 21 µM) | 1 to 10 µg/mL (≈ 2.1 to 21 µM)
Cc1c(-c2cc(F)c(N)c(F)c2)ccc2c3ocnc3c(=O)n(C3CC3)c12 [Compound 19] | 10 to 100 µg/mL (≈ 27.2 to 272 µM) | > 100 µg/mL | 1 to 10 µg/mL (≈ 2.72 to 27.2 µM) | > 100 µg/mL | < 1 µg/mL | < 1 µg/mL
Cc1c(-c2cc(F)c(C(C)O)cc2F)ccc2c3ocnc3c(=O)n(C3CC3)c12 (stereo not drawn) [Compound 22, 5-cyclopropyl-7-[2,5-difluoro-4-(1-hydroxyethyl)phenyl]-6-methyl-oxazolo[4,5-c]quinolin-4-one] | 10 to 100 µg/mL (≈ 25.2 to 252 µM) | 1 to 10 µg/mL (≈ 2.52 to 25.2 µM) | 1 to 10 µg/mL (≈ 2.52 to 25.2 µM) | 10 to 100 µg/mL (≈ 25.2 to 252 µM) | < 1 µg/mL | < 1 µg/mL
Cc1nc2c(=O)n(C3CC3)c3c(C)c(-c4cc(F)c(C#N)cc4F)ccc3c2o1 [Compound 24] | > 100 µg/mL | 10 to 100 µg/mL (≈ 25.6 to 256 µM) | 1 to 10 µg/mL (≈ 2.56 to 25.6 µM) | > 100 µg/mL | < 1 µg/mL | < 1 µg/mL
Cc1nc2c(=O)n(C3CC3)c3c(C)c(-c4ccc(C(C)(C)N)cc4)ccc3c2o1 [Compound 28, 7-[4-(2-aminopropan-2-yl)phenyl]-5-cyclopropyl-2,6-dimethyloxazolo[4,5-c]quinolin-4-one] | 10 to 100 µg/mL (≈ 25.8 to 258 µM) | 10 to 100 µg/mL (≈ 25.8 to 258 µM) | 1 to 10 µg/mL (≈ 2.58 to 25.8 µM) | 10 to 100 µg/mL (≈ 25.8 to 258 µM) | 10 to 100 µg/mL (≈ 25.8 to 258 µM) | 1 to 10 µg/mL (≈ 2.58 to 25.8 µM)
Cc1nc2c(=O)n(C3CC3)c3c(C)c(-c4cn[nH]c4)ccc3c2o1 [Compound 29, 5-cyclopropyl-2,6-dimethyl-7-(1H-pyrazol-4-yl)oxazolo[4,5-c]quinolin-4-one] | > 100 µg/mL | 10 to 100 µg/mL (≈ 31.2 to 312 µM) | 1 to 10 µg/mL (≈ 3.12 to 31.2 µM) | > 100 µg/mL | 1 to 10 µg/mL (≈ 3.12 to 31.2 µM) | 1 to 10 µg/mL (≈ 3.12 to 31.2 µM)
Cc1nc2c(=O)n(C3CC3)c3c(C)c(-c4ccc(C#N)cc4F)ccc3c2o1 [Compound 33, 4-(5-cyclopropyl-2,6-dimethyl-4-oxo-oxazolo[4,5-c]quinolin-7-yl)-3-fluoro-benzonitrile] | 10 to 100 µg/mL (≈ 26.8 to 268 µM) | > 100 µg/mL | 10 to 100 µg/mL (≈ 26.8 to 268 µM) | > 100 µg/mL | < 1 µg/mL | < 1 µg/mL
Cc1nc2c(=O)n(C3CC3)c3c(C)c(-c4cc(F)c(CO)cc4F)ccc3c2o1 [Compound 34, 5-cyclopropyl-7-[2,5-difluoro-4-(hydroxymethyl)phenyl]-2,6-dimethyl-oxazolo[4,5-c]quinolin-4-one] | > 100 µg/mL | 1 to 10 µg/mL (≈ 2.52 to 25.2 µM) | 1 to 10 µg/mL (≈ 2.52 to 25.2 µM) | > 100 µg/mL | < 1 µg/mL | < 1 µg/mL
Cc1c(-c2ccc(N)cc2)ccc2c3ocnc3c(=O)n(C3CC3)c12 [Compound 40, 7-(4-aminophenyl)-5-cyclopropyl-6-methyl-oxazolo[4,5-c]quinolin-4-one] | > 100 µg/mL | 1 to 10 µg/mL (≈ 3.02 to 30.2 µM) | 1 to 10 µg/mL (≈ 3.02 to 30.2 µM) | > 100 µg/mL | < 1 µg/mL | < 1 µg/mL
Cc1c(-c2cnc(N(C)C)nc2)ccc2c3ocnc3c(=O)n(C3CC3)c12 [Compound 41, 5-cyclopropyl-7-[2-(dimethylamino)pyrimidin-5-yl]-6-methyl-oxazolo[4,5-c]quinolin-4-one] | 10 to 100 µg/mL (≈ 27.7 to 277 µM) | > 100 µg/mL | 10 to 100 µg/mL (≈ 27.7 to 277 µM) | > 100 µg/mL | 1 to 10 µg/mL (≈ 2.77 to 27.7 µM) | 1 to 10 µg/mL (≈ 2.77 to 27.7 µM)
Cc1c(-c2ccc3nonc3c2)ccc2c3ocnc3c(=O)n(C3CC3)c12 [Compound 46, 7-(2,1,3-benzoxadiazol-5-yl)-5-cyclopropyl-6-methyl-oxazolo[4,5-c]quinolin-4-one] | 10 to 100 µg/mL (≈ 27.9 to 279 µM) | 1 to 10 µg/mL (≈ 2.79 to 27.9 µM) | > 100 µg/mL | > 100 µg/mL | < 1 µg/mL | < 1 µg/mL
Cc1c(-c2ccc(NCc3ccccc3)nc2)ccc2c3ocnc3c(=O)n(C3CC3)c12 [Compound 48, 7-[6-(benzylamino)pyridin-3-yl]-5-cyclopropyl-6-methyl-oxazolo[4,5-c]quinolin-4-one] | 10 to 100 µg/mL (≈ 23.7 to 237 µM) | 10 to 100 µg/mL (≈ 23.7 to 237 µM) | 1 to 10 µg/mL (≈ 2.37 to 23.7 µM) | > 100 µg/mL | 1 to 10 µg/mL (≈ 2.37 to 23.7 µM) | 1 to 10 µg/mL (≈ 2.37 to 23.7 µM)
Cc1nc2c(=O)n(C3CC3)c3cc(N4CC[C@@H](C(C)(C)N)C4)c(F)cc3c2o1 [Compound 50, 7-[(3R)-3-(2-aminopropan-2-yl)pyrrolidin-1-yl]-5-cyclopropyl-8-fluoro-2-methyl-oxazolo[4,5-c]quinolin-4-one] | 10 to 100 µg/mL (≈ 26 to 260 µM) | 1 to 10 µg/mL (≈ 2.6 to 26 µM) | 10 to 100 µg/mL (≈ 26 to 260 µM) | > 100 µg/mL | 1 to 10 µg/mL (≈ 2.6 to 26 µM) | 1 to 10 µg/mL (≈ 2.6 to 26 µM)
Cc1nc2c(=O)n(C3CC3)c3cc(N4CCC(C)(N)CC4)c(F)cc3c2o1 [Compound 55, 7-(4-amino-4-methylpiperidin-1-yl)-5-cyclopropyl-8-fluoro-2-methyl-oxazolo[4,5-c]quinolin-4-one] | > 100 µg/mL | 10 to 100 µg/mL (≈ 27 to 270 µM) | 1 to 10 µg/mL (≈ 2.7 to 27 µM) | > 100 µg/mL | 1 to 10 µg/mL (≈ 2.7 to 27 µM) | 1 to 10 µg/mL (≈ 2.7 to 27 µM)
Cc1nc2c(=O)n(C3CC3)c3cc(N4CCC(N)C4)c(F)cc3c2o1 (stereo not drawn) [Compound 56, 7-(3-aminopyrrolidin-1-yl)-5-cyclopropyl-8-fluoro-2-methyl-oxazolo[4,5-c]quinolin-4-one] | 10 to 100 µg/mL (≈ 29.2 to 292 µM) | 1 to 10 µg/mL (≈ 2.92 to 29.2 µM) | 1 to 10 µg/mL (≈ 2.92 to 29.2 µM) | 10 to 100 µg/mL (≈ 29.2 to 292 µM) | 1 to 10 µg/mL (≈ 2.92 to 29.2 µM) | 1 to 10 µg/mL (≈ 2.92 to 29.2 µM)
NC(=O)c1ccc(-c2cc3c(cc2F)c2ocnc2c(=O)n3C2CC2)cc1 [Compound 58, 4-(5-cyclopropyl-8-fluoro-4-oxo-oxazolo[4,5-c]quinolin-7-yl)benzamide] | 10 to 100 µg/mL (≈ 27.5 to 275 µM) | 10 to 100 µg/mL (≈ 27.5 to 275 µM) | 1 to 10 µg/mL (≈ 2.75 to 27.5 µM) | > 100 µg/mL | 1 to 10 µg/mL (≈ 2.75 to 27.5 µM) | 1 to 10 µg/mL (≈ 2.75 to 27.5 µM)
